From ChEMBL document CHEMBL1131087, “New cyclooxygenase-2/5-lipoxygenase inhibitors. 3. 7-tert-butyl-2, 3-dihydro-3,3-dimethylbenzofuran derivatives as gastrointestinal safe antiinflammatory and analgesic agents: variations at the 5 position” (J Med Chem, 1998)
Activity calls are given as the source filed them. No cut-off for these calls is given here.

Columns and labels:
Rattus norvegicus [1] = test: Inhibition of paw swelling relative to the tebufelone in rat. Value was reported as Carrageenan paw edema index; type: functional
Rattus norvegicus [2] = test: Comparative activity versus Dihydrodimethylbenzofurans in the CPE (Carrageenan paw edema) assay; -, inactive; type: functional, organism-based
[3] = Comparative activity versus Dihydrodimethylbenzofurans in the CPE (Carrageenan paw edema) assay; -, inactive; conditions: Rattus norvegicus
Rattus norvegicus [4] = organism: Rattus norvegicus; test: Compound was tested for its analgesic activity in phenylquinone-induced abdominal constriction assay(PAC); type: functional; conditions: Abdomen
Rattus norvegicus [5] = test: Compound was tested at a dose of 50 mg/kg for its antiinflammatory activity in carrageenan paw edema (CPE) assay
Rattus norvegicus [6] = test: Analgesic activity (50 mg/kg, sc)in phenylquinone-induced abdominal constriction assay(PAC); type: functional, Abdomen
Rattus norvegicus [7] = organism: Rattus norvegicus; test: Comparative activity versus Dihydrodimethylbenzofurans in the CPE assay; -, indicates inactive; type: functional, organism-based

| Structure (SMILES) | CPE index (Rattus norvegicus [1]) | ED50 (Rattus norvegicus [4]) [mg/kg] | other results |
| --- | --- | --- | --- |
| CN(C)C(=O)c1cc(C(C)(C)C)c2c(c1)C(C)(C)CO2 | 0.36 | – | Activity (Rattus norvegicus [2]): inactive |
| CC(C)(C)c1cc(C(N)=O)cc2c1OCC2(C)C | 0.07 | – | Activity [3]: inactive |
| C#CCCCC(=O)c1cc(C(C)(C)C)c(O)c(C(C)(C)C)c1 [TEBUFELONE] | – | 3.7 | inhibition in vivo at 50 mg/kg (Rattus norvegicus [5]): 51.1% |
| COc1ccc2cc([C@H](C)C(=O)O)ccc2c1 [NAPROXEN] | 1.06 | 1.3 | Inhibition (Rattus norvegicus [6]): 54% |
| CC(C)(C)c1cc(-c2cn3c(n2)S(=O)(=O)C=C3)cc2c1OCC2(C)C | 0.19 | – | Activity (Rattus norvegicus [7]): inactive |
